The subject of data set [1] is HBV. Details: method as in doi:10.1016/S0168-8278(22)00964-3, doi:10.1016/S0168-8278(22)02029-3. Particulars: treatment-naïve and NA-suppressed patients, with an NA; cited from earlier work.
For data set [2], the system named is HBV. Also on record: method as in doi:10.1016/S0168-8278(20)32197-8. To be noted: cited from earlier work.
The subject of another data set is HBV genotype D. The data set is described as follows: Antiviral activity in HBV-infected PHH, drugs added day 3 post infection, 6 days of treatment. Type of data set: cell-based, Hepatitis B virus. As to the method: (§1) Cryopreserved PHHs isolated from multiple donors were purchased from Thermo Fisher Scientific (Waltham, MA), Bioreclamation IVT (Hicksville, NY), or Lonza (USA). PHH culturing conditions as previously described ([11]). Approximately 24 h after plating, PHH was infected with HepAD38-derived HBV virions ([36]) (genotype D virus) at 500 viral genome equivalents per cell in a maintenance medium supplemented with 4% PEG 8000 (Promega, Madison, WI; V3011). The infection was allowed to proceed for 20–24 h before removing remaining extracellular virions by washing with a maintenance medium three times.
Extracellular HBsAg and HBeAg were detected in culture media by an electrochemiluminescence assay (Meso Scale Discovery [MSD]) as previously described ([37]).
Extracellular HBV DNA from PHH supernatants was purified using the Qiagen DNeasy 96 kit (69582) following the protocol recommended by the manufacturer. Quantification of HBV DNA by qPCR amplification of the HBV X region of the genome was performed as previously reported ([11]).
(§2) Antiviral activity or cytotoxicity of each test compound was determined from, extracellular HBV DNA, HBeAg, HBsAg, and alamarBlue data by comparing compound-treated PHH to DMSO-treated PHH to generate a percent of DMSO control value (% DMSO control). The % DMSO control was calculated by the following equation: % DMSO Control = 100× (XC/XD) where XC is the signal from the compound-treated PHH, and XD is the signal from the DMSO-treated PHH. The percentage of DMSO control for HBV DNA, HBeAg, HBsAg, and alamarBlue was plotted vs the log of each compound concentration in GraphPad Prism (version 6; GraphPad Software, La Jolla, CA) to generate dose-response curves. […] Error bars represent SD. Statistical analyses were performed by two-way analysis of variance (ANOVA) and Pearson’s correlation tests.

In another data set the test system is HBV genotype C. Type of data set: in vivo, uPA-SCID mice. Particulars: uPA-SCID mouse; for mean decrease of serum HBV DNA: compared to the vehicle, 84 days oral QD; for HBsAg decline: day 84 vs day 0. As to the method:
General health observations including weight were monitored weekly. All animal protocols were performed in accordance with the Guide for the Care and Use of Laboratory Animals and approved by the Animal Welfare Committee of Phoenix Bio Co., Ltd. All mice were housed individually and maintained in accordance with the Animal Ethics Committee of PhoenixBio (resolution #2214).
HBV-infected mice were randomized into four different treatment groups based on body weight, blood human albumin (h-Alb), and serum HBV DNA concentrations. All mice had blood h-Alb levels above 12 mg/mL and serum HBV DNA levels above 6.8 × 10^8 copies/mL. […] Mice were followed for an additional 28 days following cessation of treatment at day 84. Mouse serum was monitored weekly for serum HBV DNA and HBV antigens and biweekly for human (h) ALT1. Serum HBsAg and HBeAg concentrations were determined by SRL, Inc. (Tokyo, Japan) based on Chemiluminescent Enzyme Immuno Assay. HBV DNA concentration was performed using the TaqMan Fast Advanced Master Mix (Applied Biosystems, Thermo Fisher Scientific Inc.) and Applied Biosystems 7500 Real-Time PCR System (Applied Biosystems). Serum h-ALT1 concentration was determined by the Institute of Immunology Co., Ltd. (Tokyo, Japan) based on Enzyme-Linked ImmunoSorbent Assay.
(§3) Dewaxing and unmasking of antigens were performed on a Bond RX autostainer (Leica Biosystem), and subsequent assay modified for a single round of staining was performed using the Opal technology workflow (Akoya Biosciences), as described previously ([39]).

The conditions of data set [3]: AAV-HBV mouse, 100 mg-eq/kg oral QD.
The subject of another data set is AAV-HBV (HBV genotype D). In words: Efficacy study in the AAV-HBV mouse model. In kind it is in vivo, C57BL/6 mice. To be noted: for serum ALT: during 56 days of treatment; for serum HBV DNA reduction / reduction of HBc-positive cells in the liver / HBeAg reduction / HBsAg reduction: end of treatment (day 56); for serum HBV DNA reduction: oral QD; for reduction of HBc-positive cells in the liver: immunofluorescence; for HBeAg reduction / HBsAg reduction: relative to vehicle. As to the method: Recombinant AAV (serotype 8) carrying the 1.3 copy HBV genome (genotype D; serotype ayw) and empty AAV were provided by Beijing FivePlus Molecular Medicine Institute (Beijing, China). C57BL/6 mice were provided by Shanghai Lingchang Bio Tech Co. Ltd (Shanghai, China). Studies were conducted by Covance Pharmaceutical R&D (Shanghai, China). All procedures implemented during the studies followed local animal welfare legislation, Covance global policies and procedures, and the Guide for the Care and Use of Laboratory Animals.
C57BL/6 mice (male; 4–5 weeks of age) were injected with 200 µL PBS containing 1 × 10^11 vge recombinant virus per mouse through the tail vein. Twenty-eight days after AAV-HBV injection, the mice were bled retro-orbitally to monitor HBsAg and HBV genomic DNA in serum. Based on the HBsAg, HBeAg, and HBV DNA levels and body weight, AAV-HBV-infected mice were selected and randomized into groups (six animals per group) for compound and/or siRNA treatment. […] LNP empty and LNP siRNA 3 mg/kg were injected intravenously at 4 mL/kg on dosing days 0, 14, 28, 42, and 56. […] Serum HBsAg, HBeAg, and HBV DNA were measured twice weekly. ALT was measured once weekly throughout the study. Serum HBsAg and HBeAg were determined by […] i2000 (Abbott Laboratories, Lake Bluff, IL, USA). Serum HBV-DNA was analyzed by ABI7500 (Applied Biosystems, Foster City, CA, USA) and a detection kit (Sansure Biotech Inc., Changsha, Hunan, China). Serum ALT was determined using Roche Cobas 6000 Chemistry Analyzer (Roche Diagnostics, Mannheim, Germany) and supporting reagents.
as §3

For a further data set, the system named is HBV cccDNA. Particulars: cited from earlier work.
The subject of the next data set is PHH. In words: Cytotoxicity (alamarBlue) in HBV-infected PHH, 6 days of treatment. In kind it is cell-based, human. As to the method:
as §1, §2

The conditions of data set [4]: uPA-SCID mouse, 100 mg-eq/kg oral QD.

Where two headings read alike, the source gives them in different places.

Turning to `CCOC(=O)C1=C(CN2CCN3C(=O)N(CC(C)(C)C(=O)O)C[C@@H]3C2)N=C(c2nccs2)N[C@H]1c1cccc(F)c1C` [RG7907], the HBsAg reduction entry in the data set on HBV [1] is given as “no significant reduction of HBsAg”.

As to `CCOC(=O)C1=C(CN2CCOCC2)NC(c2nccs2)=NC1c1ccc(F)cc1Br` (stereo not shown) [GLS4], the HBsAg reduction in the data set with HBV [2] (treatment-naïve HBeAg-positive patients) is recorded as 0.4 log10 IU/mL. For the same compound, the HBsAg effect entry with HBV [2] (virally suppressed patients) is given as “no effect”.

As a reminder, the EC50 is the concentration at which the effect is half-maximal. A word on the CC50: it is the concentration giving 50% cytotoxicity. Higher therefore signals lower toxicity to the cells. For the compound `CNC(=O)C1(NC(=O)C(=O)c2c(C)c(C(=O)Nc3ccc(F)c(F)c3)n3c2CCC3)CC(F)(F)C1` [GS-SBA-1P], in the data set on HBV genotype D (extracellular HBV DNA, mean ± SD, read-out: Viral DNA EC50), the EC50 is 12 ± 1.2 nM. Further, the EC50 in the data set with HBV genotype D (read-out: HBeAg EC50) was more than 2000 nM. In addition, the EC50 in the data set on HBV genotype D (read-out: HBsAg EC50) was more than 2000 nM. For the same compound, in the data set on HBV genotype C, the “mean decrease of serum HBV DNA” value is listed as 5.0 log10 and the HBsAg decline is 0.4 log10. Besides, the “reduction of HBc-positive cells in the liver” value (from here on “reduction … in the liver”) with HBV genotype C (immunofluorescence, compared to vehicle or TAF-treated animals) is on record as 30%. Also, in data set [3], the “plasma and liver concentrations over the paEC50” value is reported as “approximately 76 fold”. In the data set with AAV-HBV (HBV genotype D), the “serum ALT” value was “no changes”, the “serum HBV DNA reduction” value was determined as 3.7 log10, the “reduction … in the liver” value is given as “minimal reduction” and the HBeAg reduction entry is recorded as “no changes”. The HBsAg reduction result in the data set on AAV-HBV (HBV genotype D) is “no changes”. Besides, the “concentration blocking cccDNA establishment over the HBV DNA plasma-adjusted EC50” value in the data set with HBV cccDNA is on record as “six-fold”. This compound also had a CC50 in the data set with PHH of more than 2000 nM. Besides, in [4], the “plasma exposures over the mouse plasma-adjusted EC50 of HBV DNA production” value is “greater than 76 fold”.

Regarding `CC(C)OC(=O)[C@H](C)N[P@](=O)(CO[C@H](C)Cn1cnc2c(N)ncnc21)Oc1ccccc1` [TAF, tenofovir alafenamide], in the data set on HBV genotype C, the “mean decrease of serum HBV DNA” value is given as 3.6 log10 and the HBsAg decline came to 0.35 log10. Besides, in the data set with AAV-HBV (HBV genotype D), the “serum ALT” value is reported as “no changes”, the “serum HBV DNA reduction” value came to 2.5 log10, the “reduction … in the liver” value was “no change” and the HBeAg reduction result is given as “no changes”. Moreover, the HBsAg reduction entry in the data set on AAV-HBV (HBV genotype D) is given as “no changes”.

The values are drawn from article PMC11232385, “Selective depletion of HBV-infected hepatocytes by class A capsid assembly modulators requires high levels of intrahepatic HBV core protein” (Antimicrobial Agents and Chemotherapy, 2024).
